The subject of assay [1] is TRPM4. The assay is described as follows: Agonist-induced TRPM4 currents in TrexHEK293 cells overexpressing TRPM4 (double carbachol application). The assay is classed as cell-based, human. As to the method: Patch-clamp experiments were performed in the tight-seal whole-cell configuration at 21-25 ° C. High-resolution current recordings were acquired by a computer-based patch-clamp amplifier system (EPC-9, HEKA, Lambrecht, Germany). Patch pipettes had resistance between 3-6 MΩ after filling with the standard intracellular solution. […] Currents were filtered at 2.9 kHz and digitized at 100 μs intervals. Capacitive currents and series resistance were determined and corrected before each voltage ramp using the automatic capacitance compensation of the EPC-9. The low-resolution temporal development of membrane currents was assessed by extracting the current amplitude at -80 mV or +80 mV from individual ramp current records. Data analysis, statistical analysis and graphical display of patch-clamp experiments were done using the Igor […] software program (Wavemetrics). […] Cells were treated with carbachol twice according to protocol used in the calcium measurement experiments (n=5). First, to induce exocytosis of TRPM4 containing vesicles and second to activate the new pool of TRPM4 present in the plasma membrane. Utilizing Ca^2+ imaging techniques, fura-2-AM loaded cells were stimulated with 1 mM carbachol for 200 s followed by washout and a second stimulation (FIG. 9A). […]

Assay [2] has as its target T1, TRPM4 (Rattus norvegicus, UniProt Q9ESQ5). The assay is described as follows: Glibenclamide on TRPM4 currents in INS-1 cells. As to conditions: pressure applied.
Assay [3] has as its target T1, TRPM4. The assay is described as follows: Whole-cell patch-clamp of TRPM4 currents in INS-1 cells perfused with buffered [Ca2+]i. The assay is classed as cell-based. Further details: The channel was detected in INS-1 and RINm5F cell lines; endogenous in cells; host or cells: INS-1 (rat insulinoma beta-cell line). As to conditions: current amplitude at +80 mV. (Patch clamp records ionic current or voltage across a cell membrane.)

The target in assay [4] is T2, TRPM4 (Homo sapiens, UniProt Q8TD43).
T2 construct: expressed in transfected cells; host or cells: TrexHEK-293 (tetracycline-inducible HEK-293)
The assay is described as follows: Whole-cell patch-clamp of TRPM4 currents in TrexHEK-293 cells overexpressing TRPM4, buffered [Ca2+]i. The assay is classed as cell-based. As to conditions: flag-TRPM4-TrexHEK293, current at +80 mV.

Setting [5] is: 600 s, read-out: KD, dose-response fit of TRPM4 activation, secondary phase.

Where two headings read alike, the source gives them in different places.

Experimental findings from patent US8148083B2, “Methods of screening for TRPM4 modulators of insulin secretion” (The Queen's Medical Center, priority 2006, dated 2012) are described below.

T1 sequence (Q9ESQ5 whole entry, the tested form may be a part): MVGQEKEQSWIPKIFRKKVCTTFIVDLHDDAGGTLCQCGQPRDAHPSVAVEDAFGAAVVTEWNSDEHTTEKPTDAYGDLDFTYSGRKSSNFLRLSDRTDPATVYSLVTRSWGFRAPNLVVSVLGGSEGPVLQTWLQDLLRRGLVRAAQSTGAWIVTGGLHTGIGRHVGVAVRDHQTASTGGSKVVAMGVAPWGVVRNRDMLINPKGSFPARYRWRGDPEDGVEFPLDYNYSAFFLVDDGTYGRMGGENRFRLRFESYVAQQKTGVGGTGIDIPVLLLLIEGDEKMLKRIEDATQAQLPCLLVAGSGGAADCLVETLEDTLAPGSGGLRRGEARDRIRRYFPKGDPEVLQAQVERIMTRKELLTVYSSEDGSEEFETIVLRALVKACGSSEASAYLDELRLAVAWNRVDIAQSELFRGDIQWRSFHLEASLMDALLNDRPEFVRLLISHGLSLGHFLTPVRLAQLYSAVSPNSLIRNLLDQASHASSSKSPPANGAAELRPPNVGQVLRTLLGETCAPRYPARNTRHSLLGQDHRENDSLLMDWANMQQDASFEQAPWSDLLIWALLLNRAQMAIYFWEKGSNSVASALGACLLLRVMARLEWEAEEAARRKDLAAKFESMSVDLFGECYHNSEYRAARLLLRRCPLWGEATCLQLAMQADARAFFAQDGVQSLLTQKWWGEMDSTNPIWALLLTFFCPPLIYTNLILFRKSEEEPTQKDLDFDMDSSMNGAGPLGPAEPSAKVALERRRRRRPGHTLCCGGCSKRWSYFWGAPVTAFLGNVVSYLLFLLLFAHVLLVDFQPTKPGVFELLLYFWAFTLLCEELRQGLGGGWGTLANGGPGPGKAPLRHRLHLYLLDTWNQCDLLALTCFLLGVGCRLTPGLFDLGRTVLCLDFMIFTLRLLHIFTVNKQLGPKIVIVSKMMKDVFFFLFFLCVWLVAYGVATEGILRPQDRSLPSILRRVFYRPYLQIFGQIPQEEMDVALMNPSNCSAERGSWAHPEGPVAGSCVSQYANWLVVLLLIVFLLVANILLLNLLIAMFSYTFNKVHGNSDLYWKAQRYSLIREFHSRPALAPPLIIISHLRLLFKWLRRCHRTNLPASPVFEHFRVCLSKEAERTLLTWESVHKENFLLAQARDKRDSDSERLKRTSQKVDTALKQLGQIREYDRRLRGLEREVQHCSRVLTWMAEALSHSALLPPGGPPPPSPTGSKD
T2 sequence (Q8TD43 whole entry): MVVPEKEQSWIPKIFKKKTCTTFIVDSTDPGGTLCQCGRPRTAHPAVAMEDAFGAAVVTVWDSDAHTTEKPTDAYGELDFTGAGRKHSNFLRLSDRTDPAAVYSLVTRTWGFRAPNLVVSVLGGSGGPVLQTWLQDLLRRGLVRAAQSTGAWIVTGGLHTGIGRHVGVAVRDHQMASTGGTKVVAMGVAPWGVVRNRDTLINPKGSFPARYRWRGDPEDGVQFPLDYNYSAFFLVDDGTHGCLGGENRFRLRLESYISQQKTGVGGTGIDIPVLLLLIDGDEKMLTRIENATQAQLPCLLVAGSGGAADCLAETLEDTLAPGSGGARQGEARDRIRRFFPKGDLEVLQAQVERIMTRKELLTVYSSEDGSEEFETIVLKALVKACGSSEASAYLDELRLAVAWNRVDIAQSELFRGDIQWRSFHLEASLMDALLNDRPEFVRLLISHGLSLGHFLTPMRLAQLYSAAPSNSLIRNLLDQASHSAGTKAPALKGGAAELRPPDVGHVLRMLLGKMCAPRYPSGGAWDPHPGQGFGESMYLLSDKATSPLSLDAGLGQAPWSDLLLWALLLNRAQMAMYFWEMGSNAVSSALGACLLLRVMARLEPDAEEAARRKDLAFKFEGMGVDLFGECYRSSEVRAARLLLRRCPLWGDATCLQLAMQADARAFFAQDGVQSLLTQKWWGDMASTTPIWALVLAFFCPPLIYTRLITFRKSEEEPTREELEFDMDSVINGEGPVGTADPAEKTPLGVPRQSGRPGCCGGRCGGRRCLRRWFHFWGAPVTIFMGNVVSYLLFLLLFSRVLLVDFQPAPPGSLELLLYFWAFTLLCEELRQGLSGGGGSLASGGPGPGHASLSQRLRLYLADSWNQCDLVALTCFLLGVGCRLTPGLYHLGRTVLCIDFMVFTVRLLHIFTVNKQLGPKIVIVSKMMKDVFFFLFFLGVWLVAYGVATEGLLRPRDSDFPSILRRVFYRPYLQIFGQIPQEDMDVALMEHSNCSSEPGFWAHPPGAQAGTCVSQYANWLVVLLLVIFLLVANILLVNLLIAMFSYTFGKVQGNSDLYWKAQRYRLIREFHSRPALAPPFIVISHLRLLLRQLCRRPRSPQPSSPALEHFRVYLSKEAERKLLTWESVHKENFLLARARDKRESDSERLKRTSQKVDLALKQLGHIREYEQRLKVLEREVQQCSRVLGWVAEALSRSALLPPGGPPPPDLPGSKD

For the molecule `C[N+](C)(C)CCOC(N)=O` [carbachol], the TRPM4 current amplitude result in assay [1] (first application of 1 mM carbachol) is “less than 1 nA”; in assay [1] (second carbachol application after washout), “around 10 nA”.

As to `COc1ccc(Cl)cc1C(=O)NCCc1ccc(S(=O)(=O)NC(=O)NC2CCCCC2)cc1` [Glibenclamide, glibenclamide], in assay [2], the “effect on TRPM4 channels” value is given as “activates TRPM4 channels”.

A word on the Kd: it is a measure of binding affinity in units of concentration. Consider `[Ca+2]` [Ca^2+], for which the Kd in assay [3] (80 s, read-out: KD, dose-response fit of TRPM4 activation, first phase) came out at 1700 nM; in assay [3] (setting [5]), 1200 nM; in assay [4] (setting [5]) it was 1300 nM; in assay [4] (peak of first phase, read-out: KD, dose-response fit of TRPM4 activation, first phase), 1200 nM.
